What all share (assay): NCI tumour cell line growth inhibition, 48 h
Experiment [1] relates to KM12 colon.
For experiment [2], the system named is CAKI-1 renal.
The subject of experiment [3] is SK-MEL-2 melanoma.
Experiment [4] relates to UACC-257 melanoma.
The test system of experiment [5] is PC-3 prostate.
Experiment [6] relates to RPMI-8226 leukemia.
For experiment [7], the system named is HT29 colon.
Experiment [8] deals with HCC-2998 colon.
The subject of experiment [9] is OVCAR-5 ovarian.
For experiment [10], the system named is CCRF-CEM leukemia.

Molecules are shown by their SMILES. Several values for one entry are separate records, joined by “and”; a condition that tells them apart may be missing. Identical values can stand only once.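 Cultured in 96-well plates, cells were exposed to test compound for 48 hours across five concentrations. Here, GI50 denotes the concentration required for 50% inhibition of growth. TGI marks complete inhibition of growth.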

Regarding `COc1ccc2sc3c(NCCCNCCO)nc4ccccc4c3c(=O)c2c1`, the GI50 in experiment [1] was 1.62 µM; in experiment [2], 1.57 µM; in [3], 2.08 µM; in experiment [4], 1.93 µM; in [5], 1.58 µM; in experiment [6], 1.71 µM. The GI50 in experiment [7] is 1.57 µM; in experiment [8], 1.68 µM; in experiment [9], 1.6 µM; in experiment [10] it was 1.74 µM. In addition, the TGI in experiment [1] came to 3.12 µM; in experiment [2] it was 2.99 µM; in experiment [3], 4.07 µM; in experiment [4], 3.99 µM; in [5] it was 3.1 µM; in [6], 3.86 µM. In addition, the TGI in [7] came out at 3.03 µM; in experiment [8], 3.29 µM; in experiment [9] it was 3.05 µM; in experiment [10], 4.06 µM.

`CS(=O)(=O)CS(=O)CS(=O)CS(=O)CC(NC(=O)CCC(N)C(=O)O)C(=O)O` (configuration not stated): the TGI in [1], in experiment [2], in experiment [3], in [4], in [5] and in [6] was greater than 100 µM in each case. Moreover, the TGI in experiment [7], in [8], in [9] and in experiment [10] was greater than 100 µM each time.

As to `CC1(C)CC[C@]2(C(=O)O)CC[C@]3(C)[C@H](CC[C@@H]4[C@@]5(C)CCC(=O)C(C)(C)[C@@H]5CC[C@]43C)[C@H]2[C@H]1OC(=O)C(F)(F)F`, the GI50 was 10.4 µM in experiment [1]; 12.8 µM in experiment [2]; 14.1 µM in [3]; 10.1 µM in experiment [4]; 3.98 µM in [5]; 4.82 µM in experiment [6]. For the same compound, the GI50 is 4.06 µM in experiment [7], 10.7 µM in experiment [8], 15.7 µM in [9] and 9.51 µM in experiment [10]. The TGI in experiment [1] was 24.4 µM; in experiment [2] it was 25.7 µM; in experiment [3], 30.9 µM; in experiment [4] it was 25.2 µM; in [5], 17.9 µM; in experiment [6] it was 30.9 µM. Also, the TGI is 16.7 µM in experiment [7], 22.8 µM in experiment [8], 30.7 µM in [9] and 41.5 µM in experiment [10].

Consider `CC(C)(C)n1cc(-c2ccnc(NCCNS(=O)(=O)c3cccc4ccccc34)c2)c(-c2cccc(F)c2)n1`, for which the GI50 was 17.9 µM in experiment [1]; 16 µM in [2]; 21.4 µM in experiment [3]; 25 µM in [4]; 4.71 µM in experiment [5]; 6.2 µM in [6]. Moreover, the GI50 in [7] is 5.25 µM; in experiment [8] it was 13.2 µM; in experiment [9], 23.7 µM; in experiment [10] it was 8.38 µM. For the same compound, the TGI in experiment [1] was found to be 55.8 µM; in [2], 30.8 µM; in experiment [3], 57.9 µM; in [4], 86.7 µM; in experiment [5], 54.4 µM; in experiment [6], 44.9 µM. In addition, the TGI is 23.9 µM in experiment [7], 37.9 µM in experiment [8], 69.9 µM in [9] and greater than 100 µM in experiment [10].

For `CC(C)[C@@H](CS(=O)(=O)C(C)C)N1C(=O)[C@@](C)(CC(=O)O)C[C@H](c2cccc(Cl)c2)[C@H]1c1ccc(Cl)cc1`, the GI50 was 16 µM in experiment [1]; 0.378 µM in [2]; 17.6 µM in experiment [3]; 0.381 µM in experiment [4]; 5.75 µM in experiment [5]; 15 µM in experiment [6]. Also, the GI50 is 26.6 µM in [7], 16.7 µM in experiment [8], 25.7 µM in experiment [9] and 18.2 µM in [10]. Further, the TGI was greater than 51.6 µM in experiment [1]; 32.8 µM in experiment [2]; 42.1 µM in [3]; 6.82 µM in experiment [4]; greater than 69.3 µM in experiment [5]; 53 µM in experiment [6]. Further, the TGI in [7] is greater than 90.1 µM; in experiment [8], 37.7 µM; in [9], greater than 100 µM; in experiment [10] it was 66.1 µM.

Take `COc1ccc(Nc2c[nH]c(=O)[nH]c2=O)cc1`: the TGI in [1], in [2], in experiment [3], in experiment [4], in [5] and in [6] was greater than 100 µM each time. Also, the TGI in experiment [7], in experiment [8] and in experiment [10] was greater than 100 µM each time.

Take `CC(C)(C)c1nnc2n(c1=O)N=CC(c1ccc(Br)cc1)S2` (configuration not stated): the GI50 was 26.1 µM in experiment [1]; 24.7 µM in experiment [2]; 25.3 µM in experiment [3]; 30.5 µM in experiment [4]; 42.1 µM in experiment [5]; 25.6 µM in experiment [6]. Also, the GI50 in [7] is 43.8 µM; in experiment [8], 26.3 µM; in experiment [9], 42.2 µM; in [10], 31.3 µM. The TGI is greater than 100 µM in experiment [1]; 62.5 µM in [2]; 66.1 µM in [3]; 69.4 µM in [4]; greater than 100 µM in [5]; greater than 100 µM in experiment [6]. The TGI in experiment [7] was greater than 100 µM; in experiment [8], 56.7 µM; in [9] it was greater than 100 µM; in experiment [10], greater than 100 µM.

`COP1(=S)OCC2CCC[C@@H]2O1` (some centres not stated): the TGI in experiment [1], in [2], in experiment [3], in [4], in [5] and in [6] was greater than 100 µM each time. The TGI in experiment [7], in [8], in experiment [9] and in experiment [10] was greater than 100 µM each time.

On to `O=[N+]([O-])c1ccc(O)c2ncccc12`, for which the GI50 in experiment [1] was 3.92 µM and 4.31 µM; in [3], 4.06 µM; in [5] it was 35.8 µM and 4.02 µM; in [8], 5.21 µM. Besides, the TGI in [1] was > 100 µM and 16.5 µM; in [2], > 100 µM and 16.5 µM; in [3], 19.3 µM; in experiment [5] it was greater than 100 µM; in [6], greater than 100 µM; in [7], > 100 µM and 18.9 µM. Besides, the TGI was 18.5 µM in [8]; > 100 µM and 40.5 µM in experiment [9]; greater than 100 µM in [10].

The record behind these values is PubChem BioAssay (NCI).
